In patent US10722514B2 (FLX Bio, Inc., priority 2017, dated 2020):
Where a name gives a salt, the structure may show the parent alone. Read-outs that look alike come from different tables or passages of the source.

Target: T1, recombinant full-length USP7 (Homo sapiens, UniProt Q93009)
T1 construct: A 25 μl reaction volume containing recombinant full-length USP7 (62 pM)
Assay: USP7-mediated ubiquitin-rhodamine cleavage assay
Assay type: biochemical
Details: recombinant full-length USP7 62 pM, ubiquitin-rhodamine 100 nM, 1 hour reaction at room temperature
Procedure, shortened: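 Enzyme 62 pM; HEPES pH 7.3/150 mM NaCl/1 mM TCEP/125 μg/ml BSA; 1% DMSO; 30 min cpd preinc RT; Ub-rhodamine 100 nM, 1 h RT, dark; acetic acid stop; fluorescence; IC50 4-param fit.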

[1] = 30-minute incubation with compound, read-out: Potency: USP7 IC50
[2] = 30-minute pre-incubation, read-out: Potency (USP7 IC50)

T1 sequence (Q93009 whole entry): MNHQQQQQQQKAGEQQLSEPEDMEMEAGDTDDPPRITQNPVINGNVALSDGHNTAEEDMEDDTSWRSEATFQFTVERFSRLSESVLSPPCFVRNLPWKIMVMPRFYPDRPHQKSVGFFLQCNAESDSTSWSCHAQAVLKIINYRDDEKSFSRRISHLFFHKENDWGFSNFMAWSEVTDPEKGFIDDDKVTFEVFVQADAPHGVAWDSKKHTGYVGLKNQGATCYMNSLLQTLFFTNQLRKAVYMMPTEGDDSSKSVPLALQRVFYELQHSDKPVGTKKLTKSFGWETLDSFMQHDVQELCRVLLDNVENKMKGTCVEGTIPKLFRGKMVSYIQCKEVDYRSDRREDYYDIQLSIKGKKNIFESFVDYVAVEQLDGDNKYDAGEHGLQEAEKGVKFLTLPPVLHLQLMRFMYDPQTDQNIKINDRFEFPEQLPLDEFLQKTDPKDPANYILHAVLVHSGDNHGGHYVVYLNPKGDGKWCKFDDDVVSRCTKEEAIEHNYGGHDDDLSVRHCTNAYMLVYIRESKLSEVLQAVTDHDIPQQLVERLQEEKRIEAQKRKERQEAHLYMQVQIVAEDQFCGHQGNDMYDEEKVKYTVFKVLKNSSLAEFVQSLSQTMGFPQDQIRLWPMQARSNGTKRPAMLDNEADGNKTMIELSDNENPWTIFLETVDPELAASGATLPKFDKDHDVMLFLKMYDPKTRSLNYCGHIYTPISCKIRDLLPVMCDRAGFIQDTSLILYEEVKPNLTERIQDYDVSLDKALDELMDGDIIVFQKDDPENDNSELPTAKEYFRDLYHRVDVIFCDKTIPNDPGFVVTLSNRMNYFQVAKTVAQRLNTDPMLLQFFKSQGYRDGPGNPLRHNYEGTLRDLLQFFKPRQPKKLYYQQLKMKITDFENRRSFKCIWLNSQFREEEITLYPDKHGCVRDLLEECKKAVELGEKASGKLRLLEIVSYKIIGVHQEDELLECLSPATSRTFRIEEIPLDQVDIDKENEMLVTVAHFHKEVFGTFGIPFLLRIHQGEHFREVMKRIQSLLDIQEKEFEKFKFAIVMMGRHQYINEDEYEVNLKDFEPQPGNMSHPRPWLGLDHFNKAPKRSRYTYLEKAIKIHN

| Structure (SMILES) | IC50 [1] [µM] | IC50 [2] [µM] |
| --- | --- | --- |
| Cc1cc(Cl)cc(-c2ccnc3cc(CN4C(=O)C5C(C4=O)C5(C)C)sc23)c1O[C@H]1CCNC[C@@H]1F (stereo partly drawn) [Example 383, 3-[[7-[5-chloro-2-[[(3S,4S)-3-fluoro-4-piperidyl]oxy]-3-methyl-phenyl]thieno[3,2-b]pyridin-2-yl]methyl]-6,6-dimethyl-3-azabicyclo[3.1.0]hexane-2,4-dione; 2,2,2-trifluoroacetic acid] | < 1 |  |
| Cc1cc(Cl)cc(-c2ccnc3cc(Cn4c(=O)ccn(C)c4=O)sc23)c1OC1CCCN(C(C)C)C1 (stereo not shown) [Example 505, 3-[[7-[5-chloro-2-[(1-isopropyl-3-piperidyl)oxy]-3-methyl-phenyl]thieno[3,2-b]pyridin-2-yl]methyl]-1-methyl-pyrimidine-2,4-dione] |  | < 1 |
| Cc1cc(Cl)cc(-c2ccnc3cc(CO)sc23)c1OC(C)C1CNC1 (stereo not shown) [Example 32, (7-(2-(1-(Azetidin-3-yl)ethoxy)-5-chloro-3-methylphenyl)thieno[3,2-b]pyridin-2-yl)methanol] | 10 to 30 |  |
| Cc1cc2nccc(-c3cc(Cl)cc(C)c3OCC3CNC3)c2s1 [Example 37, 7-(2-(Azetidin-3-ylmethoxy)-5-chloro-3-methylphenyl)-2-methylthieno[3,2-b]pyridine] | 1 to 10 |  |
| Cc1cc(Cl)cc(-c2ncnc3cc(Cn4c(=O)ccn(CC(F)(F)F)c4=O)sc23)c1O[C@H]1CC[C@](C)(N)C1 [Example 586, 3-[[4-[2-[(1S,3S)-3-amino-3-methyl-cyclopentoxy]-5-chloro-3-methyl-phenyl]thieno[3,2-d]pyrimidin-6-yl]methyl]-1-(2,2,2-trifluoroethyl)pyrimidine-2,4-dione; 2,2,2-trifluoroacetic acid] |  | < 1 |
| Cc1cc(Cl)cc(-c2ccnc3cc(CO)sc23)c1OCC1CNC1 [Example 19, (7-(2-(Azetidin-3-ylmethoxy)-5-chloro-3-methylphenyl)thieno[3,2-b]pyridin-2-yl)methanol] | 1 to 10 |  |
| CCN1C[C@H]2C[C@@H]1[C@H](Oc1c(C)cc(Cl)cc1-c1ccnc3cc(Cn4c(=O)ccn(CC(F)(F)F)c4=O)sc13)C2 [Example 619, 3-[[7-[5-chloro-2-[[(1S,4R,5R)-3-ethyl-3-azabicyclo[2.2.1]heptan-5-yl]oxy]-3-methyl-phenyl]thieno[3,2-b]pyridin-2-yl]methyl]-1-(2,2,2-trifluoroethyl)pyrimidine-2,4-dione] |  | < 1 |
| Cc1cc(Cl)cc(-c2ccnc3cc(Cn4c(=O)ccn(CC(F)(F)F)c4=O)sc23)c1O[C@@H]1CN[C@H](C(C)(C)O)C1 [Example 634, 3-[[7-[5-chlloro-2-[(3S,5S)-5-(1-hydroxy-1-methyl-ethyl)pyrrolidin-3-yl]oxy-3-methyl-phenyl]thieno[3,2-b]pyridin-2-yl]methyl]-1-(2,2,2-trifluoroethyl)pyrimidine-2,4-dione] |  | < 1 |
| Cc1cc(Cl)cc(-c2ncnc3cc(CN4C(=O)C5C(C4=O)C5(C)C)sc23)c1O[C@@H]1C[C@H]2CN[C@@H]1C2 (stereo partly drawn) [Example 354, 3-[[4-[2-[[(1S,4R,5R)-3-azabicyclo[2.2.1]heptan-5-yl]oxy]-5-chloro-3-methyl-phenyl]thieno[3,2-d]pyrimidin-6-yl]methyl]-6,6-dimethyl-3-azabicyclo[3.1.0]hexane-2,4-dione dihydrochloride] | < 1 |  |
| CO[C@H]1CNC[C@H]1Oc1c(C)cc(Cl)cc1-c1ccnc2cc(CN3C(=O)CCC3=O)sc12 [Example 106, 1-((7-(5-Chloro-2-(((3R,4S)-4-methoxypyrrolidin-3-yl)oxy)-3-methylphenyl)thieno[3,2-b]pyridin-2-yl)methyl)pyrrolidine-2,5-dione] | < 1 |  |
| Cc1cc(Cl)cc(-c2ccncc2CCCN2C(=O)CCC2=O)c1OC1CCNCC1 [Example 411, 1-[3-[4-[5-chloro-3-methyl-2-(4-piperidyloxy)phenyl]-3-pyridyl]propyl]pyrrolidine-2,5-dione; 2,2,2-trifluoroacetic acid] |  | 1 to 10 |
| Cc1cc(Cl)cc(-c2ccnc3cc(Cn4c(=O)ccn(CC(F)(F)F)c4=O)sc23)c1OC1CNC[C@@]1(C)F (stereo partly drawn) [Example 406, 3-[[7-[5-chloro-2-[(4R)-4-fluoro-4-methyl-pyrrolidin-3-yl]oxy-3-methyl-phenyl]thieno[3,2-b]pyridin-2-yl]methyl]-1-(2,2,2-trifluoroethyl)pyrimidine-2,4-dione; 2,2,2-trifluoroacetic acid] |  | < 1 |
| Cc1cc(Cl)cc(-c2ccnc3cc(CN4C(=O)C5C(C4=O)C5(C)C)sc23)c1O[C@H]1CCCN[C@@H]1C (stereo partly drawn) [Example 364, 3-[[7-[5-chloro-3-methyl-2-[[(2R,3S)-2-methyl-3-piperidyl]oxy]phenyl]thieno[3,2-b]pyridin-2-yl]methyl]-6,6-dimethyl-3-azabicyclo[3.1.0]hexane-2,4-dione; 2,2,2-trifluoroacetic acid] | < 1 |  |
| Cc1cc(Cl)cc(-c2ncnc3cc(CN4C(=O)C5CC5C4=O)sc23)c1O[C@@H]1CCNC[C@H]1F (stereo partly drawn) [Example 309, 3-[[4-[5-chloro-2-[[(3R,4R)-3-fluoro-4-piperidyl]oxy]-3-methyl-phenyl]thieno[3,2-d]pyrimidin-6-yl]methyl]-3-azabicyclo[3.1.0]hexane-2,4-dione dihydrochloride] | < 1 |  |
| Cc1cc(Cl)cc(-c2ccnc3cc(CO)sc23)c1O[C@@H]1CCC[C@@H]1N [Example 74, (7-(2-(((1R,2S)-2-Aminocyclopentyl)oxy)-5-chloro-3-methylphenyl)thieno[3,2-b]pyridin-2-yl)methanol] | 10 to 30 |  |
| Cc1cc(Cl)cc(-c2ccnc3cc(CN4C(=O)C5C(C4=O)C5(C)C)sc23)c1O[C@@H]1CNCC[C@@H]1C (stereo partly drawn) [Example 340, 3-[[7-[5-chloro-3-methyl-2-[[(3S,4S)-4-methyl-3-piperidyl]oxy]phenyl]thieno[3,2-b]pyridin-2-yl]methyl]-6,6-dimethyl-3-azabicyclo[3.1.0]hexane-2,4-dione] | < 1 |  |
| Cc1cc(Cl)cc(-c2ccnc3cc(Cn4c(=O)ccn(C)c4=O)sc23)c1OC1CCCN(C)C1 (stereo not shown) [Example 503, 3-[[7-[5-chloro-3-methyl-2-[(1-methyl-3-piperidyl)oxy]phenyl]thieno[3,2-b]pyridin-2-yl]methyl]-1-methyl-pyrimidine-2,4-dione] |  | < 1 |
| Cc1cc(Cl)cc(-c2ccnc3cc(Cn4c(=O)ccn(CC(F)(F)F)c4=O)sc23)c1OC1CC(N2CCC(F)(F)CC2)C1 (stereo not shown) [Example 668, 3-[[7-[5-chloro-2-[3-(4,4-difluoro-1-piperidyl)cyclobutoxy]-3-methyl-phenyl]thieno[3,2-b]pyridin-2-yl]methyl]-1-(2,2,2-trifluoroethyl)pyrimidine-2,4-dione; 2,2,2-trifluoroacetic acid] |  | < 1 |
| Cc1cc(Cl)cc(-c2ccnc3cc(CN4C(=O)C5C(C4=O)C5(C)C)sc23)c1O[C@H]1CCNC[C@H]1F (stereo partly drawn) [Example 392, 3-[[7-[5-chloro-2-[[(3R,4S)-3-fluoro-4-piperidyl]oxy]-3-methyl-phenyl]thieno[3,2-b]pyridin-2-yl]methyl]-6,6-dimethyl-3-azabicyclo[3.1.0]hexane-2,4-dione; 2,2,2-trifluoroacetic acid] | < 1 |  |
| CCC(O)c1cc2nccc(-c3cc(Cl)cc(C)c3OC(C)C3CNC3)c2s1 (stereo not shown) [Example 34, 1-(7-(2-(1-(Azetidin-3-yl)ethoxy)-5-chloro-3-methylphenyl)thieno[3,2-b]pyridin-2-yl)propan-1-ol] | 10 to 30 |  |
| Cc1cc(Cl)cc(-c2ccnc3cc(CO)sc23)c1OC1CCCNC1=O (stereo not shown) [Example 200, 3-(4-Chloro-2-(2-(hydroxymethyl)thieno[3,2-b]pyridin-7-yl)-6-methylphenoxy)piperidin-2-one] | > 30 |  |
| CC(Oc1ccc(Cl)cc1-c1ccnc2cc(CO)sc12)C1CNC1 (stereo not shown) [Example 42, (7-(2-(1-(Azetidin-3-yl)ethoxy)-5-chlorophenyl)thieno[3,2-b]pyridin-2-yl)methanol] | 10 to 30 |  |
| Cc1cc(Cl)cc(-c2ccnc3cc(CN4C(=O)C5CCCN5C4=O)sc23)c1OC1CCNCC1 (stereo not shown) [Example 218, 2-((7-(5-Chloro-3-methyl-2-(piperidin-4-yloxy)phenyl)thieno[3,2-b]pyridin-2-yl)methyl)tetrahydro-1H-pyrrolo[1,2-c]imidazole-1,3(2H)-dione] | 1 to 10 |  |
| CCN1C[C@H](F)[C@H](Oc2c(C)cc(Cl)cc2-c2ccnc3cc(CN4C(=O)C5CC5C4=O)sc23)C1 (stereo partly drawn) [Example 310, 3-[[7-[5-chloro-2-[(3R,4S)-1-ethyl-4-fluoro-pyrrolidin-3-yl]oxy-3-methyl-phenyl]thieno[3,2-b]pyridin-2-yl]methyl]-3-azabicyclo[3.1.0]hexane-2,4-dione] | < 1 |  |
| Cc1cc(Cl)cc(-c2ccnc3cc(CN4C(=O)CCC4=O)sc23)c1O[C@@H]1CC[C@@H](N)C1 [Example 126, 1-((7-(2-(((1R,3R)-3-Aminocyclopentyl)oxy)-5-chloro-3-methylphenyl)thieno[3,2-b]pyridin-2-yl)methyl)pyrrolidine-2,5-dione] | < 1 |  |
| Cc1cc(Cl)cc(-c2ccnc3cc(CO)sc23)c1OCCC1CNC1 [Example 30, (7-(2-(2-(Azetidin-3-yl)ethoxy)-5-chloro-3-methylphenyl)thieno[3,2-b]pyridin-2-yl)methanol] | > 30 |  |
| CCN1C[C@H]2C[C@@H]1[C@H](Oc1c(C)cc(Cl)cc1-c1ncnc3cc(CN4C(=O)C5C(C4=O)C5(C)C)sc13)C2 (stereo partly drawn) [Example 356, 3-[[4-[5-chloro-2-[[(1S,4R,5R)-3-ethyl-3-azabicyclo[2.2.1]heptan-5-yl]oxy]-3-methyl-phenyl]thieno[3,2-d]pyrimidin-6-yl]methyl]-6,6-dimethyl-3-azabicyclo[3.1.0]hexane-2,4-dione dihydrochloride] | < 1 |  |
| Cc1cc(F)cc(-c2ccnc3cc(CO)sc23)c1O[C@H]1CCCNC1 [Example 238, (S)-(7-(5-Fluoro-3-methyl-2-(piperidin-3-yloxy)phenyl)thieno[3,2-b]pyridin-2-yl)methanol] | 10 to 30 |  |
